Data on one compound can be found in ChEMBL document CHEMBL2407063, “Synthesis and in vitro cellular uptake of 11C-labeled 5-aminolevulinic acid derivative to estimate the induced cellular accumulation of protoporphyrin IX” (Bioorg Med Chem Lett, 2013).

Molecules are shown by their SMILES.

Data set [1] concerns ASPC1. The experiment in a line: Cellular uptake in human AsPC1 cells at 15 MBq after 10 mins by gamma counting in presence of beta-transporter substrate GABA. The following applies: aspc1, 10 min. It is filed as ADME, cell-based.
The test system of data set [2] is ASPC1. The experiment in a line: Cellular uptake in human AsPC1 cells at 15 MBq after 10 mins by gamma counting in presence of PEPT1/2 substrate glycylsarcosine. It is filed as ADME, cell-based. Conditions: aspc1, 10 min; call rule not given here.
Data set [3] concerns ASPC1. The data set is described as follows: Cellular uptake in human AsPC1 cells at 15 MBq after 10 mins by gamma counting in presence of aminolevulinic acid. Type of data set: ADME, cell-based. The following applies: aspc1, 10 min.
The subject of data set [4] is ASPC1. The data set is described as follows: Cellular uptake in human AsPC1 cells at 15 MBq by gamma counting. It is filed as ADME, cell-based. The following applies: TDE = time-dependent effect.
Data set [5] addresses T1, Delta-aminolevulinic acid dehydratase (Homo sapiens, UniProt P13716).
T1 sequence (P13716 whole entry): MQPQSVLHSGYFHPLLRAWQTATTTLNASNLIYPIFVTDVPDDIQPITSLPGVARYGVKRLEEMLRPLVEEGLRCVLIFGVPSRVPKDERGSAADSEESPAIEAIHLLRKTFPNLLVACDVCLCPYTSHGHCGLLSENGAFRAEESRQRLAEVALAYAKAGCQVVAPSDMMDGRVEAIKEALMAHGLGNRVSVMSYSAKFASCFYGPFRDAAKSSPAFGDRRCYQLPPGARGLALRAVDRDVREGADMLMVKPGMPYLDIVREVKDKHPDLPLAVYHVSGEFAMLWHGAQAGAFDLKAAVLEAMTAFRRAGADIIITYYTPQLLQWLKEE
The data set is described as follows: Inhibition of ALAD (unknown origin).

The nature of data set [6]: Protein binding in mouse serum by ultrafiltration method. Type of data set: ADME, cell-free. The following applies: read-out: PB (converted).
Data set [7] in a line: […] in mouse serum after 60 mins by HPLC analysis. Type of data set: ADME, cell-free.

In the case of `[11CH3]C(N)C(=O)CCC(=O)O` (racemic), the Drug uptake result is given as “Not Active” in the data set with ASPC1 [1], “Not Active” in the data set with ASPC1 [2], “Not Active” in the data set on ASPC1 [3] and “tde” in the data set with ASPC1 [4]. The Ki in data set [5] came to 200 nM. Also, the fraction unbound in data set [6] is 0.973. The fraction unbound at 1 h in data set [7] amounted to 0.974.
